“And” between values parts separate entries of the source, which are not always exact repeats. Identical values can stand only once. Like-named read-outs stand apart in the source and are kept apart here. Where a SMILES comes first, the peptide text is derived from it. Bridges are numbered along the chain shown (N, C = ends). [ ]: non-standard residue; d: D form. Orn(fluoroacetimidoyl) = N=C(CF)NCCC[C@H](N)C(=O)O
Key:
[1] = tested on: PADIs 1-4; assay: COLDER citrullination activity of purified PADIs 1-4 and PADI4 C645A (no inhibitor); type: biochemical, human; parameters: key to Citrullination activity of PADI4 WT / C645A (Figure S4c): absorbance at 540 nm (colorimetric citrulline readout); conditions: for Citrullination activity of PADI4 WT / C645A (Figure S4c): no inhibitor
Procedure: (§1) PADI4 citrullination activity was analysed using the COLDER assay in 96-well plates. Peptide dilutions were prepared from a 500 µM stock, to give a 10 times concentrated dilution series (500 µM, 300 µM, 100 µM, 30 µM, 10 µM, 3 µM, 1 µM, 0.3 µM, 0.1 µM and 0.03 µM) in COLDER buffer (50 mM HEPES, 150 mM NaCl and 2 mM DTT, pH 7.5) containing 1% DMSO. In triplicate, each was diluted 10-fold further when mixed with 50 nM His-PADI4, 0.6 mg/mL BSA and 10 mM CaCl2, in COLDER buffer. With or without one hour of incubation, 10 mM N^α-Benzoyl-L-arginine ethyl ester hydrochloride (BAEE, Merck) was added to initiate the reaction (50 µL final volume). After 30 min at rt, EDTA (50 mM final concentration) was used to quench the reaction and 200 µL of COLDER solution containing 20 mM Diacetyl monoxime/2,3-butanedione monoxime (Merck), 0.5 mM Thiosemicarbazide (Acros Organics), 2.25 M H3PO4, 4.5 M H2SO4 and 1.5 mM NH4Fe(SO4)2.12H2O was added to each well. Samples were incubated for 20 min at 95 °C before measuring absorbance at 540 nm on a CLARIOstar Plus (BMG LABTECH). Data analysis was performed with GraphPad Prism. Data are presented as the average ± standard error of the mean from at least two independent replicates.

[2] = target: T1, PADI4 (Homo sapiens, UniProt Q9UM07); assay: COLDER inhibition assay, BAEE substrate, with or without 1 h preincubation; type: biochemical; conditions: for IC50: COLDER; for remaining activity at 0.003 µM: peptide 0.003 µM; for remaining activity at 0.01 µM: peptide 0.01 µM; for remaining activity at 0.03 µM: peptide 0.03 µM; for remaining activity at 0.1 µM: peptide 0.1 µM; for remaining activity at 0.3 µM: peptide 0.3 µM; for remaining activity at 1 µM: peptide 1 µM; for remaining activity at 3 µM: peptide 3 µM; for remaining activity at 10 µM: peptide 10 µM
T1 construct: His6; made in house
T1 sequence (Q9UM07 whole entry): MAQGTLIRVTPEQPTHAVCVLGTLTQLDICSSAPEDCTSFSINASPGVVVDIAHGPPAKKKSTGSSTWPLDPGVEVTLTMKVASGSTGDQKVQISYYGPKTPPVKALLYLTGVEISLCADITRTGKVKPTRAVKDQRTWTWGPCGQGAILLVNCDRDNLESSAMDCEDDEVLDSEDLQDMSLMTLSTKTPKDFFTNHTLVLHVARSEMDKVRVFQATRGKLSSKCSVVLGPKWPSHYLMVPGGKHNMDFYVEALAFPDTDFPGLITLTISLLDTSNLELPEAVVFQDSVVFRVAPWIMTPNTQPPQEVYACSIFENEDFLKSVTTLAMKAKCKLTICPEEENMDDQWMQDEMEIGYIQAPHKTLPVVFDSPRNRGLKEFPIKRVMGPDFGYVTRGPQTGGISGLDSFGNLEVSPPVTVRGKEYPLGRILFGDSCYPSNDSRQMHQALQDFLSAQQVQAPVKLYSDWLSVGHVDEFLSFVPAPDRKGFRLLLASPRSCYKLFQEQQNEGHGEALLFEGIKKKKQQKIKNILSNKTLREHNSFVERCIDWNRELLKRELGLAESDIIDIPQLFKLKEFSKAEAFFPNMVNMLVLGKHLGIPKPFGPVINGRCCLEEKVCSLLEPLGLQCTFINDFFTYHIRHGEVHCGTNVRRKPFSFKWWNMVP
Procedure: as §1

[3] = target: T1, PADI4; assay: Incubation time-dependent COLDER assay IC50(t), Krippendorff fit; type: biochemical; conditions: for IC50: replicates, read-out: apparent IC50; for Ki / kinact: Krippendorff fit of IC50 vs time
Procedure: To determine KI and kinact of covalent peptide inhibitors, COLDER assays were used[52]. Peptide dilutions were prepared using 5-fold dilutions from 500 µM and 300 µM to 0.8 µM and 2.4 µM, respectively, at 1% DMSO in COLDER buffer (50 mM HEPES, 150 mM NaCl and 2 mM DTT, pH 7.5). The 9 peptide dilutions were added to a 96-well plate, alongside a 1% DMSO control. An equal volume of 10 mM BAEE was added to each well and the solution was homogenised by pipette mixing. This was mixed with 50 nM His-PADI4, 0.6 mg/mL BSA and 10 mM CaCl2, in COLDER buffer, to bring the final volume to 300 µL in each well. Alternatively, His-PAD1 (100 nM) /His-PADI2 (100 nM) /His-PADI3 (250 nM) were used. For assays with PADI1 and PADI3, 10 mM N^α-benzoyl-L-arginine methyl […] (BAME) was used as the substrate instead of BAEE[48],[58],[59]. At 15-minute intervals, for 5 timepoints, 50 µL of solution was taken from each well and quenched with 10 µL EDTA (300 mM). 200 µL of COLDER solution containing 20 mM diacetyl monoxime/2,3-butanedione monoxime (Merck), 0.5 mM thiosemicarbazide (Acros Organics), 2.25 M H3PO4, 4.5 M H2SO4 and 1.5 mM NH4Fe(SO4)2.12H2O was added to each well. Samples were incubated for 20 min at 95 °C before measuring absorbance at 540 nm on a CLARIOstar Plus (BMG LABTECH). IC50 values for each time point were determined using non-linear regression with GraphPad Prism. Incubation time–dependent potency IC50(t) against incubation time was fitted to the Krippendorff equation (below) to determine KI and kinact using a Python script[53],[59]. […] IC50t=KI1+S/KM⋅2−2e^−ηIC50⋅kinact⋅t/ηIC50⋅kinact⋅t−1 WhereηIC50=IC50t/KI1+S/KM+IC50t

[4] = target: T1, PADI4; assay: Surface plasmon resonance (SPR), single cycle kinetics; type: binding; conditions: for Ki: k-1/k+1
Procedure: S8. Surface plasmon resonance (SPR)
Using a Biacore S200 (GE Healthcare), biotinylated His-PADI4 (80 nM) was immobilised on a CAP chip (GE Healthcare) to a response unit of approx. 3000. At 25 °C, single cycle kinetics mode was used with 5 samples of a 3-fold dilution series of peptides PADI4_3_H4(2), cP4_2, […]
mM HEPES, 150 mM NaCl, 10 mM CaCl2, 0.05% Tween-20, 0.1% DMSO (pH 7.5). After each cycle, regeneration of the chip was carried out as per the manufacturer’s protocol. Data were analysed with the Biacore S200 Evaluation Software, each in triplicate. Warhead-containing peptides were analysed using the two-state reaction model, with the rate constant for the reverse second step (k-2) set to zero. The equilibrium constant of the reversible binding step, Ki, was calculated as the ratio of k-1/k+1 and the rate constant of the irreversible chemical step, kinact, as k+2. The Arg4, Cit4 and Me4 peptides were fitted using a 1:1 binding model. […]

[5] = 1 h preincubation of peptide and PADI4, 10 mM CaCl2, read-out: IC50 Values 1 h preincubation
[6] = T=0, values starred, read-out: PADI4 activity normalised to 0.1% DMSO
[7] = T=1, read-out: PADI4 activity normalised to 0.1% DMSO
[8] = T=0, read-out: PADI4 activity normalised to 0.1% DMSO
[9] = each replicate, read-out: k2 / kinact
[10] = two-state reaction model, k+2, read-out: SPR kinact (converted)
[11] = no preincubation of peptide and PADI4, 10 mM CaCl2, read-out: IC50 Values 0 h preincubation

Row | Compound | IC50 [2, 5] | remaining activity at 0.003 µM [2, 6] | remaining activity at 0.003 µM [2, 7] | remaining activity at 0.01 µM [2, 6] | remaining activity at 0.1 µM [2, 8] | remaining activity at 1 µM [2, 8] | remaining activity at 3 µM [2, 8] | remaining activity at 10 µM [2, 8] | kinact/KI [3] | IC50 ([3]; 15 mins) | IC50 ([3]; 30 mins) | IC50 ([3]; 45 mins) | IC50 ([3]; 60 mins) | IC50 ([3]; 75 mins) | Ki [3] | kinact [3] | kinact/KI [4] | kinact [4, 9] | kinact [4, 10] | Ki ([4]; two-state reaction model) | further results
1 | WT | – | – | – | – | – | – | – | – | – | – | – | – | – | – | – | – | – | – | – | – | Citrullination activity of PADI4 WT / C645A (Figure S4c) ([1]; +EDTA): 0.259 and 0.261 and 0.247 and 0.193 and 0.23 and 0.231; Citrullination activity of PADI4 WT / C645A (Figure S4c) ([1]; -EDTA): 1.114 and 1.151 and 1.275 and 1.3 and 1.248
2 | PADI2 | – | – | – | – | – | – | – | – | – | – | – | – | – | – | – | – | – | – | – | – | Absorbance at 540 nm ([1]; purified PADI enzyme, no inhibitor (Figure S10)): 0.974 and 1.004 and 1.007 and 0.7767 and 0.7637 and 0.7657
3 | N=C(N)NCCC[C@@H]1NC(=O)[C@H](Cc2ccc(O)cc2)NC(=O)[C@H](Cc2c[nH]cn2)NC(=O)[C@H](CCCNC(=N)CF)NC(=O)[C@H](CC(=O)O)NC(=O)[C@H](CCCNC(=N)N)NC(=O)[C@@H](Cc2ccc(O)cc2)NC(=O)CSC[C@@H](C(=O)NCC(N)=O)NC(=O)[C@H](Cc2ccc(O)cc2)NC(=O)[C@H](CCCCN)NC(=O)[C@@H]2CCCN2C(=O)[C@H](Cc2c[nH]cn2)NC1=O [PADI4_3_H4(2), yRD(2)HYRHPKYCG] ({CH2CO}-[dY]RD[Orn(fluoroacetimidoyl)]HYRHPKYCG-NH2; thioether N-12) | 65 ± 7 nM | 103% | 102% | 100% | 101% | 77.4% | 41.2% | 18.1% | 2480 M⁻¹ s⁻¹ | 5.47 µM and 4.15 µM and 5.26 µM | 2.46 µM and 1.82 µM and 2 µM | 1.86 µM and 1.33 µM and 1.52 µM | 1.43 µM and 1.06 µM and 1.16 µM | 1.24 µM and 1.01 µM and 1.09 µM | 1100 ± 200 nM | 0.00267 s⁻¹ | 68000 M⁻¹ s⁻¹ | 0.001 s⁻¹ | 0.00102 s⁻¹ | 15 ± 2 nM | remaining activity at 0.01 µM [2, 7]: 83.7%; remaining activity at 0.03 µM [2, 8]: 102%; remaining activity at 0.03 µM [2, 7]: 82.9%; remaining activity at 0.1 µM [2, 7]: 29%; remaining activity at 0.3 µM [2, 8]: 96.2%; k2 / kinact ([4]; each replicate, listed as P4_3_H4(2)): 0.0013 s⁻¹
4 | N=C(N)NCCC[C@@H]1NC(=O)[C@H](CCCCN)NC(=O)[C@H](CC(N)=O)NC(=O)[C@H](Cc2ccccc2)NC(=O)[C@H](CC(=O)O)NC(=O)[C@H](Cc2c[nH]c3ccccc23)NC(=O)[C@H](CC(N)=O)NC(=O)[C@H](CCCNC(=N)CF)NC(=O)[C@H](Cc2ccc(O)cc2)NC(=O)[C@H](Cc2c[nH]c3ccccc23)NC(=O)[C@@H](Cc2ccc(O)cc2)NC(=O)CSC[C@@H](C(=O)NCC(N)=O)NC1=O [cP4_10, yWY(2)NWDFNKRCG] ({CH2CO}-[dY]WY[Orn(fluoroacetimidoyl)]NWDFNKRCG-NH2; thioether N-12) | 93 ± 2 nM | 93.1% | 98.1% | 92% | 90.6% | 75.7% | 48.4% | 19.7% | 1450 M⁻¹ s⁻¹ | 7.24 µM and 6.94 µM and 5.53 µM | 3.82 µM and 3.29 µM and 3.6 µM | 2.72 µM and 2.38 µM and 2.64 µM | 2.15 µM and 2.09 µM and 2.33 µM | 1.96 µM and 1.81 µM and 2.18 µM | 1500 ± 300 nM | 0.00217 s⁻¹ | 33400 M⁻¹ s⁻¹ | 0.0041 s⁻¹ | 0.00383 s⁻¹ | 120 ± 100 nM | IC50 [2, 11]: 3100 ± 10 nM; remaining activity at 0.01 µM [2, 7]: 81.1%; remaining activity at 0.03 µM [2, 8]: 91.3%; remaining activity at 0.03 µM [2, 7]: 82.2%; remaining activity at 0.3 µM [2, 8]: 91.5%; k2 / kinact ([4]; each replicate): 0.0034 s⁻¹
5 | C645A | – | – | – | – | – | – | – | – | – | – | – | – | – | – | – | – | – | – | – | – | Citrullination activity of PADI4 WT / C645A (Figure S4c) ([1]; +EDTA): 0.268 and 0.278 and 0.279 and 0.186 and 0.254 and 0.214; Citrullination activity of PADI4 WT / C645A (Figure S4c) ([1]; -EDTA): 0.211 and 0.22 and 0.222 and 0.281 and 0.285 and 0.262
6 | CC(C)[C@@H]1NC(=O)[C@@H](Cc2ccc(O)cc2)NC(=O)CSC[C@@H](C(=O)NCC(N)=O)NC(=O)[C@H](Cc2ccc(O)cc2)NC(=O)[C@H](CCCCN)NC(=O)[C@H](Cc2c[nH]c3ccccc23)NC(=O)[C@H](CCC(=O)O)NC(=O)[C@H](CCCCN)NC(=O)[C@H](CCCNC(=N)CF)NC(=O)[C@H](CO)NC(=O)[C@H](Cc2ccc(O)cc2)NC1=O [cP4_7, yVYS(2)KEWKYCG] ({CH2CO}-[dY]VYS[Orn(fluoroacetimidoyl)]KEWKYCG-NH2; thioether N-11) | 160 ± 20 nM | 99.1% | 99.2% | 99.2% | 100% | 93.8% | 79% | 49.3% | 300 M⁻¹ s⁻¹ | 27.7 µM and 48.2 µM and 40.3 µM | 12.5 µM and 21.4 µM and 18.5 µM | 8.85 µM and 10 µM and 8.94 µM | 6.22 µM and 7.03 µM and 7.47 µM | 5.35 µM and 5.67 µM and 6.53 µM | 4300 ± 1100 nM | 0.00128 s⁻¹ | 5720 M⁻¹ s⁻¹ | 0.0086 s⁻¹ | 0.00917 s⁻¹ | 1600 ± 100 nM | IC50 [2, 11]: 8000 ± 1200 nM; remaining activity at 30 µM ([2]; peptide 30 µM, T=0, read-out: PADI4 activity normalised to 0.1% DMSO): 20.9%; k2 / kinact ([4]; each replicate): 0.0094 s⁻¹
